Here are results for 14 compounds from PMC11279841, “New Members of the Centrapalus Coumarin and Pauciflorin Series from Centrapalus pauciflorus” (Pharmaceutics, 2024).

Read-outs that look alike come from different tables or passages of the source. Bounds are passed on as bounds.

For data set [1], the system named is MCF-7 cells. Nature of the data set: MTT antiproliferative assay, MCF-7 breast cancer cells. Type of data set: cell-based, human. The conditions noted are these: for inhibition at 10 µM / inhibition at 30 µM: Homo sapiens, read-out: Inhibition (%) ± SEM. From the text:
(§1) The antiproliferative activities of the isolated compounds were investigated on a panel of human adherent cancer cell lines using the 3-(4,5-dimethylthiazol-2-yl)-2,5-diphenyltetrazolium bromide) (MTT) assay. Cell lines isolated from cervical (HeLa and SiHa), breast (MCF-7 and MDA-MB-231), ovarian cancers (A2780), and non-malignant mouse fibroblasts (NIH/3T3) were purchased from the European Collection of Cell Cultures (Salisbury, UK). The SiHa cell line was obtained from the […] (Manassas, VA, USA). The cell culturing and determination of the antiproliferative effects of the isolated compounds were conducted using a methodology described previously. Calculations were performed using GraphPad Prism 5.01 software (GraphPad Software Inc., San Diego, CA, USA).
(§2) The antiproliferative properties of centrapalus coumarins N (2) and O (5) were investigated against a panel of human adherent tumor cell lines of gynecological origin by in vitro MTT assay (Table 4). The amounts of the other compounds were insufficient for the in vitro assay. Compounds 2 and 5 were tested on the breast (MCF-7, MDA-MB-231), cervical (HeLa, SiHa), and ovarian (A2780) cancer cells in two concentrations (10 and 30 µM). The anticancer agent cisplatin was used as a positive control. […] Non-cancerous mouse fibroblasts (NIH/3T3) were additionally included to characterize the cancer selectivity of the tested compounds. Since compounds 2 and 5 elicited weak action against fibroblasts, lower than against the ovarian cancer cells, their effect detected on A2780 cells could be regarded as selective.
In general terms: Formazan colour is commonly taken as a measure of viable cells.

In data set [2] the test system is A2780 cells. Nature of the data set: MTT antiproliferative assay, A2780 ovarian cancer cells. Type of data set: cell-based, human. The conditions noted are these: for IC50: A2780, read-out: Calculated IC50 Value (converted); for inhibition at 10 µM / inhibition at 30 µM: read-out: Inhibition (%) ± SEM.
From the text: as §1, §2

Data set [3] concerns HeLa cells. The data set is described as follows: MTT antiproliferative assay, HeLa cervical cancer cells. In kind it is cell-based, human. The conditions noted are these: for inhibition at 10 µM / inhibition at 30 µM: Homo sapiens, read-out: Inhibition (%) ± SEM.
From the text: as §1, §2

Data set [4] deals with SiHa cells. Nature of the data set: MTT antiproliferative assay, SiHa cervical cancer cells. Type of data set: cell-based, human. To be noted: for inhibition at 10 µM / inhibition at 30 µM: Homo sapiens, read-out: Inhibition (%) ± SEM.
From the text: as §1, §2

Another data set relates to MDA-MB-231 cells. The data set is described as follows: MTT antiproliferative assay, MDA-MB-231 breast cancer cells. Type of data set: cell-based, human. To be noted: for inhibition at 10 µM / inhibition at 30 µM: Homo sapiens, read-out: Inhibition (%) ± SEM.
From the text: as §1, §2

In data set [5] the test system is NIH/3T3 mouse fibroblasts. Nature of the data set: MTT antiproliferative assay, non-malignant NIH/3T3 fibroblasts. To be noted: for inhibition at 10 µM / inhibition at 30 µM: Mus musculus, NIH3T3, read-out: Inhibition (%) ± SEM; for action against fibroblasts (in words): NIH/3T3, lower than against the ovarian cancer cells. Type of data set: cell-based.
From the text: as §1, §2

Data set [6] deals with A549, HCT116, SK-HEP-1, and HL-60. On the set-up: method as in PMID 29641986. The conditions noted are these: four cancer cell lines; cited from earlier work.
Data set [7] concerns MCF-7 cells. The conditions noted are these: cited from earlier work.
Data set [8] deals with HeLa cells. The conditions noted are these: cited from earlier work.
Data set [9] concerns Leishmania major promastigotes. Further details: method as in PMID 9170288. The conditions noted are these: in vitro; cited from earlier work.
The subject of data set [10] is Plasmodium falciparum schizonts. On the set-up: method as in PMID 9170288. To be noted: in vitro; cited from earlier work.
The subject of the next data set is human lymphocytes. Further details: method as in PMID 9170288. To be noted: cited from earlier work.
In another data set the test system is Bulinus truncatus. The conditions noted are these: cited from earlier work.
Another data set concerns Biomphalaria glabrata. To be noted: cited from earlier work.
Data set [11] relates to A2780 cells. Further details: method as in doi:10.1016/j.arabjc.2023.104777. The conditions noted are these: previous work; cited from earlier work.
For data set [12], the system named is SiHa cells. Further details: method as in doi:10.1016/j.arabjc.2023.104777. To be noted: previous work; cited from earlier work.
Data set [13] relates to MCF-7, MDA-MB-231, HeLa, SiHa and A2780 cells. To be noted: previous antiproliferative assay; cited from earlier work.
Where [14] appears, read: ref our previous studies, read-out: IC50 (remarkable antiproliferative activity).
Setting [15] is: read-out: Calculated IC50 Value (converted).

Broadly, the inhibition is the share of the control response that was lost under treatment. As a reminder, the IC50 is the concentration at which inhibition is half-maximal. With `C=CC1(C)CC(=O)C2C(=O)c3c(C)cccc3OC21C1(C)Cc2c(c3c(C)cccc3oc2=O)O1` (centres unmarked) [Compound 2, centrapalus coumarin N], the inhibition at 10 µM with MCF-7 cells [1] (MCF7, 10 µM) is 34.6 ± 2.19%; in the data set with A2780 cells [2] (Homo sapiens, A2780, 10 µM), 27.7 ± 1.34%; with HeLa cells [3] (10 µM), less than 20%; in the data set with SiHa cells [4] (10 µM), less than 20%; with MDA-MB-231 cells (MDA-MB-231, 10 µM), less than 20%; in [5] (NIH/3T3, 10 µM), less than 20%. In addition, the inhibition at 30 µM with MCF-7 cells [1] (MCF7, 30 µM) is 44.2 ± 1.76%; with A2780 cells [2] (Homo sapiens, A2780, 30 µM) it was 66.2 ± 0.7%; in the data set on HeLa cells [3] (30 µM), 41.8 ± 1.42%; in the data set on SiHa cells [4] (30 µM) it was 30.7 ± 1.49%; in the data set on MDA-MB-231 cells (MDA-MB-231, 30 µM) it was 25.4 ± 2.06%; in data set [5] (NIH/3T3, 30 µM), 48.5 ± 2.2%. Besides, the IC50 in the data set with A2780 cells [2] (Homo sapiens) was 20.1 µM. Moreover, the “antiproliferative activity against ovarian cancer cells (in words)” value in the data set with A2780 cells [2] is “considerable and selective”. Further, in data set [5], the “action against fibroblasts (in words)” value was “weak action”.

For the compound `C/C(=C\CC[C@@]1(C)C=Cc2c(O)cc(C)cc2O1)CC(=O)CC(C)C` [anthopogochromene B], in data set [6], the “cytotoxic activity (in words)” value was “moderate cytotoxic activity”.

Take centrapalus coumarin B: the IC50 in the data set on MCF-7 cells [7] (setting [14]) and with HeLa cells [8] (setting [14]) was less than 10 µM in each case.

Consider `Cc1cccc2oc(=O)c3c(c12)O[C@@H](C)[C@@]3(C)CC(=O)[C@@H]1OC1(C)C` [2′-epicycloisobrachycoumarinone epoxide], for which, in data set [9], the “activity against Leishmania major promastigotes (in words)” value was “exhibited activity”. Further, the “activity against Plasmodium falciparum schizonts (in words)” value in data set [10] is listed as “exhibited activity”. The “inhibition on the proliferation of human lymphocytes (in words)” value in the data set on human lymphocytes was “weak inhibition”.

Ethuliacoumarin A: the “molluscicidal activity (in words)” value in the data set with Bulinus truncatus and in the data set on Biomphalaria glabrata was “molluscicidal activity” throughout.

With `C=C[C@@]1(C)C[C@@]2(C=C(C)C(=O)O2)Oc2c1c(=O)oc1cccc(C)c21` [Compound 6], the IC50 in the data set on MCF-7 cells [7] (previous work, read-out: IC50) is 15.3 µM; in the data set on A2780 cells [11], 29.9 µM; with SiHa cells [12] it was 18.9 µM; in the data set with HeLa cells [8] (previous work, read-out: IC50), 14.6 µM.

Regarding pauciflorin F, the IC50 in the data set on MCF-7 cells [7] (setting [14]) and in the data set with HeLa cells [8] (setting [14]) was less than 10 µM each time.

As for `CC1=C[C@H](C[C@]2(C)c3c(c4c(C)cccc4oc3=O)O[C@@H]2C)OC1=O` [Compound 8, Hoehnelia coumarin], the “antiproliferative activity (in words)” value in data set [13] is reported as “ineffective”.

Consider `N.N.[Cl][Pt][Cl]` [Cisplatin, cisplatin, reference compound], for which the “Inhibition (%) ± SEM” value with MCF-7 cells [1] (MCF7, 10 µM) is listed as 66.91 ± 1.81%; in the data set with MCF-7 cells [1] (MCF7, 30 µM), 96.80 ± 0.35%; in the data set on A2780 cells [2] (A2780, 10 µM), 83.57 ± 2.21%; in the data set with A2780 cells [2] (A2780, 30 µM), 95.02 ± 0.28%; with HeLa cells [3] (10 µM), 42.61 ± 2.33%; in the data set with HeLa cells [3] (30 µM), 99.93 ± 0.26%. The “Inhibition (%) ± SEM” value in the data set with SiHa cells [4] (10 µM) amounted to 60.98 ± 0.92%; with SiHa cells [4] (30 µM), 88.95 ± 0.53%; in the data set on MDA-MB-231 cells (MDA-MB-231, 10 µM), 42.72 ± 2.68%; in the data set on MDA-MB-231 cells (MDA-MB-231, 30 µM) it was 86.44 ± 0.42%; in data set [5] (NIH/3T3, 10 µM) it was 73.88 ± 1.63%; in data set [5] (NIH/3T3, 30 µM), 97.10 ± 0.15%. Also, the 50% inhibitory concentration (IC50) with MCF-7 cells [1] (MCF7, read-out: Calculated IC50 Value (converted)) is 5.78 µM; in the data set on A2780 cells [2], 1.3 µM; with HeLa cells [3] (setting [15]) it was 12.4 µM; in the data set with SiHa cells [4] (setting [15]), 4.29 µM; with MDA-MB-231 cells (MDA-MB-231, read-out: Calculated IC50 Value (converted)) it was 10.2 µM; in [5] (NIH/3T3, read-out: Calculated IC50 Value (converted)), 5.5 µM.

For `C=C[C@]1(C)C[C@@H](C=C(C)C)Oc2c1c(=O)oc1cccc(C)c21` [Compound 7, Centrapalus coumarin A], the IC50 in the data set on MCF-7 cells [7] (setting [14]) was less than 10 µM; with A2780 cells [11], 19.7 µM; in the data set on HeLa cells [8] (previous work, read-out: IC50), 9.21 µM; in the data set with HeLa cells [8] (setting [14]), less than 10 µM.

On to `Cc1cccc2oc(=O)c3c(c12)O[C@H](C)[C@@]3(C)CC(=O)[C@@H]1OC1(C)C` [cycloisobrachycoumarinone epoxide], for which the “activity against Leishmania major promastigotes (in words)” value in [9] is recorded as “exhibited activity”. The “activity against Plasmodium falciparum schizonts (in words)” value in data set [10] is recorded as “exhibited activity”. Besides, the “inhibition on the proliferation of human lymphocytes (in words)” value with human lymphocytes is “weak inhibition”.

In the case of `C=C[C@@]1(C)C[C@@H](/C=C(\C)C(=O)OC)Oc2c1c(=O)oc1cccc(C)c21` [Compound 5, (3′R),(5′S)-(E)-methyl 3-(4,10-dimethyl-5-oxo-4-vinyl-2,3,4,5-tetrahydropyrano[3,2-c]chromen-2-yl)-2-methyl acrylate], the inhibition at 10 µM in the data set with MCF-7 cells [1] (MCF7, 10 µM) is less than 20%; with A2780 cells [2] (Homo sapiens, A2780, 10 µM), 27.4 ± 1.55%; in the data set with HeLa cells [3] (10 µM) it was less than 20%; in the data set with SiHa cells [4] (10 µM), less than 20%; in the data set with MDA-MB-231 cells (MDA-MB-231, 10 µM), less than 20%; in [5] (NIH/3T3, 10 µM), less than 20%. Moreover, the inhibition at 30 µM stood at 35.5 ± 1.51% in the data set with MCF-7 cells [1] (MCF7, 30 µM); 69.3 ± 1.12% in the data set on A2780 cells [2] (Homo sapiens, A2780, 30 µM); 31.3 ± 1.18% in the data set with HeLa cells [3] (30 µM); 33.3 ± 1.32% in the data set with SiHa cells [4] (30 µM); 25.5 ± 1.2% with MDA-MB-231 cells (MDA-MB-231, 30 µM); 28.4 ± 2.5% in data set [5] (NIH/3T3, 30 µM). Further, in the data set with A2780 cells [2] (Homo sapiens), the 50% inhibitory concentration (IC50) was 16 µM. Further, the “antiproliferative activity against ovarian cancer cells (in words)” value in the data set with A2780 cells [2] is “considerable and selective”. In data set [5], the “action against fibroblasts (in words)” value is “weak action”.

centrapalus coumarin F: the IC50 in the data set on MCF-7 cells [7] (setting [14]) and in the data set with HeLa cells [8] (setting [14]) was less than 10 µM throughout.

In the case of isoethuliacoumarin A, the “molluscicidal activity (in words)” value with Bulinus truncatus and in the data set on Biomphalaria glabrata was “molluscicidal activity” throughout.
